Measurements reported in patent US9499538B2, “Estrogen receptor modulators and uses thereof” (Seragon Pharmaceuticals, Inc., priority 2012, dated 2016).

Key:
[1] = test system: MCF-7 cells; test: Breast Cancer Cell Viability Assays (MCF-7, CellTiter-Glo); assay type: cell-based; settings: 5 days' compound exposure; for IC50: Homo sapiens, MCF7, 120 h
Method in brief: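 Percent viability, background-subtracted against untreated wells, was taken from CellTiter-Glo luminescence after 5 days' exposure of MCF-7 cells. Compounds were tested at eleven semilog concentrations, final 0.3–0.000003 μM, in RPMI containing 10% FBS.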

[2] = biological target: T1, ER-α in MCF-7 cells (Homo sapiens, UniProt P03372); test: Breast Cancer Cell ER-α In Cell Western Assay (SP1); assay type: cell-based; settings: 4 or 24 hr post compound addition; for Emax: MCF7, SP1 antibody, read-out: ER-α In Cell Western Assay (SP1) Max Response; for DC50: SP1 antibody, read-out: ER-α In Cell Western Assay (SP1) IC50
T1 construct: endogenous in cells; host or cells: MCF-7
T1 sequence (P03372 1-595): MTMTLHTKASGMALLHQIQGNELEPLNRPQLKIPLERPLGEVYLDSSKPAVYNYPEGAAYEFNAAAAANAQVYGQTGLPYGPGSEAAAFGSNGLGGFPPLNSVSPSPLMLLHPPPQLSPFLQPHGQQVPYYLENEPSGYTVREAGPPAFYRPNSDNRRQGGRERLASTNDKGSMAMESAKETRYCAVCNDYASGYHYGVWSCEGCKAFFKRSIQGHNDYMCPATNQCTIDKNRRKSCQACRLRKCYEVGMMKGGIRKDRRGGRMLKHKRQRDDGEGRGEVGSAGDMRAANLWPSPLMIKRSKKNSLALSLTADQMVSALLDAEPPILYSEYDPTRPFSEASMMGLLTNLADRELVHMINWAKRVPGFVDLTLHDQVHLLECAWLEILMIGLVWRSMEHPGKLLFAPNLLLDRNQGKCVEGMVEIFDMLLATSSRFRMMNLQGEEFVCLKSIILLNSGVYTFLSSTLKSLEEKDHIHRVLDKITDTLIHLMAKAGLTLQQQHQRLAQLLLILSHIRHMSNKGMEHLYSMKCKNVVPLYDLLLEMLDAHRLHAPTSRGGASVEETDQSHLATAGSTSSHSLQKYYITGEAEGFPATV
Method in brief: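 ER-α levels quantified by in-cell western: SP1 signal normalised to DRAQ5 DNA stain, relative to untreated cells (% ER). Compounds at 0.3–0.000003 μM final, 11-point semilog series, 4 or 24 h exposure of MCF-7 cells grown in charcoal-stripped serum.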

| IC50 [1] [nM] | Emax [2] [%] | DC50 [2] [nM] | Compound | MCF7 Viability Assay Max Response [1] |
| --- | --- | --- | --- | --- |
| ≤ 100 | ≥ 40 | ≤ 100 | CC(C)/C(=C(/c1ccc(/C=C/C(=O)O)cc1)c1ccc2[nH]ncc2c1)c1ccccc1Cl [Example 35, (E)-3-(4-((E)-2-(2-Chlorophenyl)-1-(1H-indazol-5-yl)-3-methylbut-1-en-1-yl)phenyl)acrylic acid] | ++ (++ = a single % value ≧ 40%) |
| ≤ 100 | ≥ 40 | ≤ 100 | CC/C(=C(/c1ccc(/C=C/c2nnn[nH]2)cc1)c1ccc2[nH]nc(F)c2c1)c1ccc(F)cc1Cl [Example 170, 5-((E)-1-(4-((E)-2-(2H-Tetrazol-5-yl)vinyl)phenyl)-2-(2-chloro-4-fluorophenyl)but-1-en-1-yl)-3-fluoro-1H-indazole] | ++ (++ = a single % value ≧ 40%) |
| ≤ 100 | ≥ 40 | ≤ 100 | CC/C(=C(/c1ccc(/C=C/C(=O)O)cc1)c1ccc2[nH]nc(F)c2c1)c1ccccc1Cl [Example 261, (E)-3-(4-((E)-2-(2-Chlorophenyl)-1-(3-fluoro-1H-indazol-5-yl)but-1-en-1-yl)phenyl)acrylic acid] | ++ (++ = a single % value ≧ 40%) |
| ≤ 100 | ≥ 40 | ≤ 100 | Fc1ccc(/C(=C(\c2ccc(/C=C/c3nnn[nH]3)cc2)c2ccc3nccn3c2)C2CCC2)c(Cl)c1 [Example 178, 6-((E)-1-(4-((E)-2-(2H-Tetrazol-5-yl)vinyl)phenyl)-2-(2-chloro-4-fluorophenyl)-2-cyclobutylvinyl)imidazo[1,2-a]pyridine] | ++ (++ = a single % value ≧ 40%) |
| ≤ 100 | ≥ 40 | ≤ 100 | COc1ccc(/C(=C(\c2ccc(/C=C/C(=O)O)cc2)c2ccc3[nH]nc(F)c3c2)C2CCC2)c(F)c1 [Example 68, (E)-3-(4-((E)-2-Cyclobutyl-1-(3-fluoro-1H-indazol-5-yl)-2-(2-fluoro-4-methoxyphenyl)vinyl)phenyl)acrylic acid] | ++ (++ = a single % value ≧ 40%) |
| ≤ 100 | ≥ 40 | ≤ 100 | N#Cc1cscc1/C(=C(\c1ccc(/C=C/C(=O)O)cc1)c1ccc2scnc2c1)C1CCC1 [Example 88, (E)-3-(4-((E)-1-(Benzo[d]thiazol-5-yl)-2-(4-cyanothiophen-3-yl)-2-cyclobutylvinyl)phenyl)acrylic acid] | ++ (++ = a single % value ≧ 40%) |
| ≤ 100 | ≥ 40 | ≤ 100 | CC/C(=C(/c1ccc(/C=C/C(=O)O)cc1)c1ccc2scnc2c1C#N)c1ccccc1 [Example 19, (E)-3-(4-((E)-1-(4-Cyanobenzo[d]thiazol-5-yl)-2-phenylbut-1-en-1-yl)phenyl)acrylic acid] | ++ (++ = a single % value ≧ 40%) |
| ≤ 100 | ≥ 40 | ≤ 100 | CC/C(=C(/c1ccc(/C=C/c2nnn[nH]2)cc1)c1ccc2[nH]nc(F)c2c1)c1ccncc1Cl [Example 171, 5-((E)-1-(4-((E)-2-(2H-Tetrazol-5-yl)vinyl)phenyl)-2-(3-chloropyridin-4-yl)but-1-en-1-yl)-3-fluoro-1H-indazole] | ++ (++ = a single % value ≧ 40%) |
| ≤ 100 | ≥ 40 | ≤ 100 | Cc1cc(/C(=C(\c2ccccc2)C2CCC2)c2ccc3[nH]nc(F)c3c2)ccc1/C=C/C(=O)O [Example 37, (E)-3-(4-((E)-2-Cyclobutyl-1-(3-fluoro-1H-indazol-5-yl)-2-phenylvinyl)-2-methylphenyl)acrylic acid] | ++ (++ = a single % value ≧ 40%) |
| > 100 | ≥ 40 | > 100 | CC/C(=C(/c1ccc(/C=C/C(=O)O)cc1)c1cc(F)c2[nH]ncc2c1F)c1ccccc1 [Example 32, (E)-3-(4-((E)-1-(4,7-Difluoro-1H-indazol-5-yl)-2-phenylbut-1-en-1-yl)phenyl)acrylic acid] | ++ (++ = a single % value ≧ 40%) |
| > 100 | ≥ 40 | ≤ 100 | Cc1cc(/C(=C(\c2ccccc2)C2CCC2)c2ccc3[nH]nc(F)c3c2)cnc1/C=C/C(=O)O [Example 135, (E)-3-(5-((Z)-2-Cyclobutyl-1-(3-fluoro-1H-indazol-5-yl)-2-phenylvinyl)-3-methylpyridin-2-yl)acrylic acid] | ++ (++ = a single % value ≧ 40%) |
| ≤ 100 | ≥ 40 | ≤ 100 | N=C(N)/C=C/c1ccc(/C(=C(\c2ccccc2)C2CCC2)c2ccc3[nH]nc(F)c3c2)cc1 [Example 210] | ++ (++ = a single % value ≧ 40%) |
| ≤ 100 | ≥ 40 | ≤ 100 | Fc1n[nH]c2ccc(/C(=C(/c3ccccc3)C3CCC3)c3ccc(/C=C/c4nnco4)cc3)cc12 [Example 208, 2-((E)-4-((E)-2-Cyclobutyl-1-(3-fluoro-1H-indazol-5-yl)-2-phenylvinyl)styryl)-1,3,4-oxadiazole] | ++ (++ = a single % value ≧ 40%) |
| ≤ 100 | ≥ 40 | ≤ 100 | Cc1sccc1/C(=C(\c1ccc(/C=C/C(=O)O)cc1)c1ccc2[nH]nc(F)c2c1)C1CCC1 [Example 149, (E)-3-(4-((E)-2-Cyclobutyl-1-(3-fluoro-1H-indazol-5-yl)-2-(2-methylthiophen-3-yl)vinyl)phenyl)acrylic acid] | ++ (++ = a single % value ≧ 40%) |
| ≤ 100 | ≥ 40 | ≤ 100 | COc1cc(C)c(/C(=C(\c2ccc(/C=C/C(=O)O)cc2)c2cccc3[nH]nc(F)c23)C2CCC2)cn1 [Example 245, (E)-3-(4-((E)-2-Cyclobutyl-1-(3-fluoro-1H-indazol-4-yl)-2-(6-methoxy-4-methylpyridin-3-yl)vinyl)phenyl)acrylic acid] | ++ (++ = a single % value ≧ 40%) |
| ≤ 100 | ≥ 40 | ≤ 100 | O=C(/C=C/c1ccc(/C(=C(\c2ccccc2)C2CCC2)c2ccc3[nH]nnc3c2)cc1)NCCO [Example 182, (E)-3-(4-((E)-1-(1H-Benzo[d][1,2,3]triazol-5-yl)-2-cyclobutyl-2-phenylvinyl)phenyl)-N-(2-hydroxyethyl)acrylamide] | ++ (++ = a single % value ≧ 40%) |
| ≤ 100 | ≥ 40 | ≤ 100 | Cc1cc(F)ccc1/C(=C(\c1ccc(/C=C/C(=O)O)cc1)c1ccc2scnc2c1)C1CCC1 [Example 239, (E)-3-(4-((E)-1-(Benzo[d]thiazol-5-yl)-2-cyclobutyl-2-(4-fluoro-2-methylphenyl)vinyl)phenyl)acrylic acid] | ++ (++ = a single % value ≧ 40%) |
| ≤ 100 | ≥ 40 | ≤ 100 | CS(=O)(=O)c1ccccc1/C(=C(\c1ccc(/C=C/C(=O)O)cc1)c1ccc2[nH]nc(F)c2c1)C1CC1 [Example 193, (E)-3-(4-((E)-2-Cyclopropyl-1-(3-fluoro-1H-indazol-5-yl)-2-(2-(methylsulfonyl)phenyl)vinyl)phenyl)acrylic acid] | ++ (++ = a single % value ≧ 40%) |
| ≤ 100 | ≥ 40 | ≤ 100 | O=C(O)/C=C/c1ccc(/C(=C(\c2ccccc2)C2CCC2)c2ccc3[nH]nc(F)c3c2)cc1Cl [Example 167, (E)-3-(2-Chloro-4-((Z)-2-cyclobutyl-1-(3-fluoro-1H-indazol-5-yl)-2-phenylvinyl)phenyl)acrylic acid] | ++ (++ = a single % value ≧ 40%) |
| ≤ 100 | ≥ 40 | ≤ 100 | CC/C(=C(/c1ccc(/C=C/C(=O)O)cc1)c1ccc2[nH]nc(F)c2c1)c1ccc(C#N)cc1Cl [Example 106, (E)-3-(4-((E)-2-(2-Chloro-4-cyanophenyl)-1-(3-fluoro-1H-indazol-5-yl)but-1-en-1-yl)phenyl)acrylic acid] | ++ (++ = a single % value ≧ 40%) |
| ≤ 100 | ≥ 40 | ≤ 100 | N#Cc1cc(F)ccc1/C(=C(\c1ccc(/C=C/C(=O)O)cc1)c1ccc2[nH]ncc2c1)C1CCC1 [Example 54, (E)-3-(4-((E)-2-(2-Cyano-4-fluorophenyl)-2-cyclobutyl-1-(1H-indazol-5-yl)vinyl)phenyl)acrylic acid] | ++ (++ = a single % value ≧ 40%) |
